# Measured values as given in US5888475A, “Labeled cocaine analogs” (Emory University, priority 1997, dated 1999).
# Like-named read-outs stand apart in the source and are kept apart here.
# Key:
# dopamine transporter = target: T1, dopamine transporter (Rattus norvegicus, UniProt P23977); test: In vitro binding: displacement of [3H]WIN 35,428 in rat striatal homogenate; conditions: displacement of [3H]WIN 35,428, rat striatal homogenate; read-out: calculated binding constant with dopamine transporter
# T1 construct: in a rat striatal homogenate preparation; from tissue; host or cells: rat striatum (homogenate)
# Protocol: (§1) In vivo distribution of a compound of the invention, [^18 F]-2β-carbo-2'-fluoroisopropoxy-3β-(4-iodophenyl)tropane (FIPIT) 8 (X=4-iodophenyl; Y=1'fluoro-isopropoxy) was measured, as well as brain PET imaging to determine suitability of the compound as a label. Also, in vitro binding studies were conducted, measuring the ability of FIPIT to displace [^3 H]WIN 35,428 (III) in a rat striatal homogenate preparation. These studies provided a calculated binding constant for FIPIT 8 with dopamine transporter of 1.13 nM. […] Region of interest measurements determined striatal to cerebellum ratios to be 3.0 at 190 min post administration. In the in vivo distribution studies, the distribution of radioactivity was expressed as percent dose per gram in tissues of unfasted male Sprague Dawley rats at 2 min, 30 min, 60 min and 120 min after intravenous administration of [^18 F] FIPIT 8. The results are shown in Table I. The initial level of accumulation of radioactivity in the striatum, a region rich in dopamine transporters, after injection of [^18 F] FIPIT 8 was high, 0.84% of injected dose/gram at 2 min, and decreased slowly to 0.50% of injected dose/gram at 120 min. […] However, the amount of radioactivity in the cerebellum and cortex at 120 min decreased to only 0.14% dose/gram and 0.26% dose/gram respectively resulting in a striatum to cerebellum ratio of 3.71 and a striatum to cortex ratio of 2.0.
# [1] = In vivo tissue distribution of radioactivity after intravenous administration; parameters: species or system Sprague Dawley rats; conditions: rat, i.v.; for tissue uptake at 2 min / tissue uptake at 0.5 h / tissue uptake at 1 h / tissue uptake at 2 h: iv
# Protocol: as §1
# [2] = Brain PET imaging with [18F]-FIPIT in a rhesus monkey; type: in vivo
# Protocol: as §1
# T1 sequence (P23977 whole entry): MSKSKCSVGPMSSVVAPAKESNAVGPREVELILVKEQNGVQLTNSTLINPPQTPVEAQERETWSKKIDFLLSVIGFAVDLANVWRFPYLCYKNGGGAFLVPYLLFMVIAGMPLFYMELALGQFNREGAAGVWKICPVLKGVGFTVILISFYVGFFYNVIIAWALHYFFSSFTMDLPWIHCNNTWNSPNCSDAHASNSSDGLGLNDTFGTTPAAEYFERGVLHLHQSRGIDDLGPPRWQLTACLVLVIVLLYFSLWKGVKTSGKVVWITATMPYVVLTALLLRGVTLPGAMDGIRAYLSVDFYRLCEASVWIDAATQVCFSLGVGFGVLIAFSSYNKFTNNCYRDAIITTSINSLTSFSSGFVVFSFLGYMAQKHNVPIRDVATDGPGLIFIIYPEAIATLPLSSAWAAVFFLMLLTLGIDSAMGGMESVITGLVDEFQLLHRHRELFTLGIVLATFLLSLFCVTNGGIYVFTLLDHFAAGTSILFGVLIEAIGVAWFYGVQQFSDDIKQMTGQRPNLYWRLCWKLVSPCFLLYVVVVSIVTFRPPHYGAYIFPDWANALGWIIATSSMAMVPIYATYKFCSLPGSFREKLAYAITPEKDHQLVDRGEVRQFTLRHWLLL
smiles,measurement,setting,value
CC(CF)OC(=O)[C@H]1[C@@H](c2ccc(I)cc2)C[C@@H]2CC[C@H]1N2C (stereo partly drawn) [FIPIT 8],Ki,dopamine transporter,1.13 nM
"CC(C[18F])OC(=O)[C@H]1[C@@H](c2ccc(I)cc2)C[C@@H]2CC[C@H]1N2C (stereo partly drawn) [[^18 F] FIPIT 8, Fluorine-18 labeled2β-carbo-1'-fluoroisopropoxy-3β-(4-iodophenyl)tropane]",tissue uptake at 2 min,"[1]; blood, 2 min, read-out: Blood, Mean % Injected Dose/Gram",0.14 %ID/g
same,tissue uptake at 0.5 h,"[1]; blood, 30 min, read-out: Blood, Mean % Injected Dose/Gram",0.03 %ID/g
same,tissue uptake at 1 h,"[1]; blood, 60 min, read-out: Blood, Mean % Injected Dose/Gram",0.03 %ID/g
same,tissue uptake at 2 h,"[1]; blood, 120 min, read-out: Blood, Mean % Injected Dose/Gram",0.04 %ID/g
same,tissue uptake at 2 min,"[1]; bone, 2 min, read-out: Bone, Mean % Injected Dose/Gram",0.28 %ID/g
same,tissue uptake at 0.5 h,"[1]; bone, 30 min, read-out: Bone, Mean % Injected Dose/Gram",0.21 %ID/g
same,tissue uptake at 1 h,"[1]; bone, 60 min, read-out: Bone, Mean % Injected Dose/Gram",0.17 %ID/g
same,tissue uptake at 2 h,"[1]; bone, 120 min, read-out: Bone, Mean % Injected Dose/Gram",0.25 %ID/g
same,tissue uptake at 2 min,"[1]; brain, 2 min, read-out: Brain (B), Mean % Injected Dose/Gram",0.83 %ID/g
same,tissue uptake at 0.5 h,"[1]; brain, 30 min, read-out: Brain (B), Mean % Injected Dose/Gram",0.53 %ID/g
same,tissue uptake at 1 h,"[1]; brain, 60 min, read-out: Brain (B), Mean % Injected Dose/Gram",0.31 %ID/g
same,tissue uptake at 2 h,"[1]; brain, 120 min, read-out: Brain (B), Mean % Injected Dose/Gram",0.28 %ID/g
same,tissue uptake at 2 min,"[1]; cerebellum, 2 min, read-out: Cerebell (C), Mean % Injected Dose/Gram",0.76 %ID/g
same,tissue uptake at 0.5 h,"[1]; cerebellum, 30 min, read-out: Cerebell (C), Mean % Injected Dose/Gram",0.3 %ID/g
same,tissue uptake at 1 h,"[1]; cerebellum, 60 min, read-out: Cerebell (C), Mean % Injected Dose/Gram",0.16 %ID/g
same,tissue uptake at 2 h,"[1]; cerebellum, 120 min, read-out: Cerebell (C), Mean % Injected Dose/Gram",0.14 %ID/g
same,tissue uptake at 2 min,"[1]; cortex, 2 min, read-out: Cortex (Cx), Mean % Injected Dose/Gram",0.98 %ID/g
same,tissue uptake at 0.5 h,"[1]; cortex, 30 min, read-out: Cortex (Cx), Mean % Injected Dose/Gram",0.53 %ID/g
same,tissue uptake at 1 h,"[1]; cortex, 60 min, read-out: Cortex (Cx), Mean % Injected Dose/Gram",0.28 %ID/g
same,tissue uptake at 2 h,"[1]; cortex, 120 min, read-out: Cortex (Cx), Mean % Injected Dose/Gram",0.26 %ID/g
same,tissue uptake at 2 min,"[1]; heart, 2 min, read-out: Heart, Mean % Injected Dose/Gram",1.7 %ID/g
same,tissue uptake at 0.5 h,"[1]; heart, 30 min, read-out: Heart, Mean % Injected Dose/Gram",0.14 %ID/g
same,tissue uptake at 1 h,"[1]; heart, 60 min, read-out: Heart, Mean % Injected Dose/Gram",0.1 %ID/g
same,tissue uptake at 2 h,"[1]; heart, 120 min, read-out: Heart, Mean % Injected Dose/Gram",0.12 %ID/g
same,tissue uptake at 2 min,"[1]; kidney, 2 min, read-out: Kidney, Mean % Injected Dose/Gram",2.61 %ID/g
same,tissue uptake at 0.5 h,"[1]; kidney, 30 min, read-out: Kidney, Mean % Injected Dose/Gram",0.85 %ID/g
same,tissue uptake at 1 h,"[1]; kidney, 60 min, read-out: Kidney, Mean % Injected Dose/Gram",0.44 %ID/g
same,tissue uptake at 2 h,"[1]; kidney, 120 min, read-out: Kidney, Mean % Injected Dose/Gram",0.3 %ID/g
same,tissue uptake at 2 min,"[1]; liver, 2 min, read-out: Liver, Mean % Injected Dose/Gram",1.5 %ID/g
same,tissue uptake at 0.5 h,"[1]; liver, 30 min, read-out: Liver, Mean % Injected Dose/Gram",3.89 %ID/g
same,tissue uptake at 1 h,"[1]; liver, 60 min, read-out: Liver, Mean % Injected Dose/Gram",5.2 %ID/g
same,tissue uptake at 2 h,"[1]; liver, 120 min, read-out: Liver, Mean % Injected Dose/Gram",4.46 %ID/g
same,tissue uptake at 2 min,"[1]; lung, 2 min, read-out: Lung, Mean % Injected Dose/Gram",6.21 %ID/g
same,tissue uptake at 0.5 h,"[1]; lung, 30 min, read-out: Lung, Mean % Injected Dose/Gram",0.61 %ID/g
same,tissue uptake at 1 h,"[1]; lung, 60 min, read-out: Lung, Mean % Injected Dose/Gram",0.4 %ID/g
same,tissue uptake at 2 h,"[1]; lung, 120 min, read-out: Lung, Mean % Injected Dose/Gram",0.46 %ID/g
same,tissue uptake at 2 min,"[1]; muscle, 2 min, read-out: Muscle, Mean % Injected Dose/Gram",0.12 %ID/g
same,tissue uptake at 0.5 h,"[1]; muscle, 30 min, read-out: Muscle, Mean % Injected Dose/Gram",0.13 %ID/g
same,tissue uptake at 1 h,"[1]; muscle, 60 min, read-out: Muscle, Mean % Injected Dose/Gram",0.04 %ID/g
same,tissue uptake at 2 h,"[1]; muscle, 120 min, read-out: Muscle, Mean % Injected Dose/Gram",0.08 %ID/g
same,washout from brain regions other than striatum,[1],rapid washout in all other brain regions
same,"Bone, Mean % Injected Dose/Gram",[1]; 2 min,0.28 % Injected Dose/Gram
same,"Cerebell (C), Mean % Injected Dose/Gram",[1]; 2 min,0.76 % Injected Dose/Gram
same,"Cortex (Cx), Mean % Injected Dose/Gram",[1]; 2 min,0.98 % Injected Dose/Gram
same,St/C (striatum to cerebellum ratio),[1]; 2 min,1.12
same,St/Cx (striatum to cortex ratio),[1]; 2 min,0.86
same,"Striatum (St), Mean % Injected Dose/Gram",[1]; 2 min,0.84 % Injected Dose/Gram
same,in vivo defluorination (from bone radioactivity),[1]; 2 min to 120 min,stability of the 2β-fluoroisopropyl group to significant in vivo defluorination
same,St/C (striatum to cerebellum ratio),[1]; 30 min,2.42
same,St/Cx (striatum to cortex ratio),[1]; 30 min,1.38
same,St/C (striatum to cerebellum ratio),[1]; 60 min,3.63
same,St/Cx (striatum to cortex ratio),[1]; 60 min,2.13
same,"Bone, Mean % Injected Dose/Gram",[1]; 120 min,0.25 % Injected Dose/Gram
same,"Cerebell (C), Mean % Injected Dose/Gram",[1]; 120 min,0.14 % Injected Dose/Gram
same,"Cortex (Cx), Mean % Injected Dose/Gram",[1]; 120 min,0.26 % Injected Dose/Gram
same,St/C (striatum to cerebellum ratio),[1]; 120 min,3.71
same,St/Cx (striatum to cortex ratio),[1]; 120 min,2.0
same,"Striatum (St), Mean % Injected Dose/Gram",[1]; 120 min,0.50 % Injected Dose/Gram
same,St/Cx (striatum to cortex ratio),"[1]; 120 min, listed as [^18 F] FIPIT (8)",2.00
same,tissue uptake at 2 min,"[1]; spleen, 2 min, read-out: Spleen, Mean % Injected Dose/Gram",1.58 %ID/g
same,tissue uptake at 0.5 h,"[1]; spleen, 30 min, read-out: Spleen, Mean % Injected Dose/Gram",0.64 %ID/g
same,tissue uptake at 1 h,"[1]; spleen, 60 min, read-out: Spleen, Mean % Injected Dose/Gram",0.4 %ID/g
same,tissue uptake at 2 h,"[1]; spleen, 120 min, read-out: Spleen, Mean % Injected Dose/Gram",0.38 %ID/g
same,tissue uptake at 2 min,"[1]; striatum, 2 min, read-out: Striatum (St), Mean % Injected Dose/Gram",0.84 %ID/g
same,tissue uptake at 0.5 h,"[1]; striatum, 30 min, read-out: Striatum (St), Mean % Injected Dose/Gram",0.73 %ID/g
same,tissue uptake at 1 h,"[1]; striatum, 60 min, read-out: Striatum (St), Mean % Injected Dose/Gram",0.58 %ID/g
same,tissue uptake at 2 h,"[1]; striatum, 120 min, read-out: Striatum (St), Mean % Injected Dose/Gram",0.5 %ID/g
same,tissue uptake at 2 min,"[1]; testis, 2 min, read-out: Testis, Mean % Injected Dose/Gram",0.14 %ID/g
same,tissue uptake at 0.5 h,"[1]; testis, 30 min, read-out: Testis, Mean % Injected Dose/Gram",0.68 %ID/g
same,tissue uptake at 1 h,"[1]; testis, 60 min, read-out: Testis, Mean % Injected Dose/Gram",0.17 %ID/g
same,tissue uptake at 2 h,"[1]; testis, 120 min, read-out: Testis, Mean % Injected Dose/Gram",0.19 %ID/g
same,brain region of highest uptake (basal ganglia/striatum),[2],region of highest uptake in the brain
same,retention in basal ganglia (striatum),[2]; 190 min following injection,prolonged retention with clear visualization at 190 min
same,striatal to cerebellum ratio (region of interest measurements),[2]; 190 min post administration,3.0
